Results on seven compounds are retold here after patent publication US11066423B2, “Monomeric bimetal hydroxycitric acid compounds and methods of making and using the same” (GLYKON TECHNOLOGIES GROUP, LLC, priority 2016, dated 2021).

Series [1] deals with de novo lipogenesis (DNL). The following applies: obese subjects, 6 g HCA/day for 5 days; cited from earlier work.
Series [2] concerns de novo lipogenesis (DNL). The series is described as follows: Decrease of de novo lipogenesis in rats (literature). It counts as in vivo. The following applies: extrapolated from rats. An excerpt: Dosages of various HCA compositions found to be effective are quite large, indeed beyond the normal range for pharmaceutical products, with efficacy that is highly variable. […] A later study found a significant, yet limited effect after 7 days of a diet designed specifically to induce de novo lipogenesis in humans. (Physiol Behay. 2006 Jul. 30; 88(4-5):371-81). See also, Nutr Metab (Lond). 2005 Sep. 13; 2:23.

Series [3] in a line: Conductivity of solutions (electrical conductivity, HACH Conductivity/TDS meter). In kind it is physicochemical. An excerpt: The structure of the subject compounds (e.g., as described herein) can be deduced using a conductance meter to observe the extent of dissociate of the first and/or second metals from the compounds. In an experiment described below equimolar samples and comparative electrolyte conductance to K-acetate solution as a standard, data may be obtained which is characteristic of electrolyte binary conductants. […] The KMgHCA solution in water may have a pH 8-10 depending on the concentration. Under this condition, the heterocyclic anion formed will tend toward a stable form rather than an ionizable one.
Several experiments investigating the electrical conductivities of solutions of KMgHCA, KZnHCA and KMnHCA were performed. The equipment used was HACH Conductivity/TDS meter, P/N=4460-00.
Materials: KMgHCA.4H2O, KZnHCA.2H2O, KMnHCA.2H2O were prepared using methods described herein. KC2H3O2 and […] was obtained from Merck. H2O used was demineralized water.
General procedure: All the HCA compounds and Acetate were weighed and placed in a volumetric flask and dissolved with demineralized water to one liter solution and then they were tested the conductivity (EC).

The subject of another series is Osteoporosis. The experiment in a line: Example 14: comparison of KCaHCA and/or KMgHCA compositions, single subject. In kind it is in vivo, human. The following applies: for symptoms of osteoporosis: 200 mg 3 times a day after meals; for subject's condition during the regimen: 200 mg doses 3 times a day, sequential regimens in the same subject after 3 months of the blend. Here is the method:
• Subject: (cited as Example 12, above) • • Problem: Osteoporosis Treatment: Materials were consumed 3 times a day after meals. • Experiment 1. Blending 150 mg KMgHCA.8H2O+50 mg KCaHCA.3H2O • A 200 mg mixture of KCaHCA (25%) and KMgHCA (75%) prepared according to the subject methods was used. The actual percentage of calcium was (40/338)×25%=2.96%. Since KCaHCA.3H2O was used the percentage of magnesium in the composition was (24/412)×75%=4.37%. Since KMgHCA.8H2O was used, the ratio Ca:Mg=0.15:0.36 in mmol. • Experiment 2. 200 mg KMgHCA.8H2O • Experiment 3.

The test system of series [4] is osteoporosis and calcification on hand and leg. The series is described as follows: Example 13: comparison of different bimetal regimes (KMg vs. KCa vs. combination), two subjects. In kind it is in vivo, human. Further details: key to Treatment performance: + +: very good performance; + −: good but slight complaint. Here is the method:
Subject I: a person, 40 kg (cited in Example 11, above)
Subject II: a person; 72 kg
• Treatment: A. Mixture 25% KCa HCA+75% KMg HCA bimetals (100-200 mg) • B. Only KMg HCA bimetal Results: […]

The conditions of series [5]: cited from earlier work.
The mark [6] stands for this setting: 0.3 mmol/l in demineralized water, no additive.

In the case of `O=C(O)CC(O)(C(=O)O)C(O)C(=O)O` (stereo not drawn) [HCA, Hydroxycitric acid], the “inhibition of DNL / promotion of fatty acid oxidation” value in series [1] is given as “failed to inhibit DNL”. The “effective dose extrapolated to a 70 kg human being” value in series [2] was “approximately 4.5 g/day”.

As to `CC(=O)[O-].[K+]` [KC2H3O2, K-acetate, reference compound], the “E. C (μS/cm)” value in series [3] (setting [6]) was 56.06 μS/cm.

Take `O=C([O-])C[C@@](O)(C(=O)[O-])[C@H](O)C(=O)[O-].[Ca+2].[K+]` [KCaHCA]: in the series with Osteoporosis, the symptoms of osteoporosis entry is given as “not effective” and the “subject's condition during the regimen” value is recorded as “unable to move their leg”.

For `O=C1CC(O)(C(O)C(=O)[O-])C(=O)[O][Mg][O]1.[K+]` (stereo not drawn) [KMgHCA, Potassium Magnesium Bimetal HCA Compound], in the series with Osteoporosis, the symptoms of osteoporosis entry is given as “partial improvement” and the “subject's condition during the regimen” value was “slight difficult to walk because feeling of burning sensation in their feet”. In series [3] (0.3 mmol/l), the “κ value contribution of Mg—O bond (half of the 2 bond contribution)” value is given as 2.095 μS/cm. In series [3] (setting [6]), the “E. C (μS/cm)” value is 60.25 μS/cm. Besides, in series [3] (0.3 mmol/l, additive 10 mg gliserol), the “E. C (μS/cm)” value was 60.23 μS/cm. Moreover, the “E. C (μS/cm)” value in series [3] (0.3 mmol/l, additive 10 mg glucose) is 60.29 μS/cm. Besides, the “2 bond of Mg—O contribution to κ value” in series [3] (run 2 minus run 1 (60.25-56.06)) is approximately 4.19 μS/cm. Moreover, in series [4] (Patient II (72 kg)), the Treatment performance entry is “+ −”. Further, in series [4] (Subject II), the “observed result following treatment” value is on record as “could stand on their feet” and the reduction of symptoms entry is listed as “partial reduction of symptoms”.

In the case of `O=C1CC(O)(C(O)C(=O)[O][Mg][O]C(=O)C(O)C2(O)CC(=O)[O][Mg][O]C2=O)C(=O)[O][Mg][O]1` (stereo not drawn) [Mg3(HCA)2•2H2O, reference compound], in series [3] (0.1 mmol/l in demineralized water (equimolar in Mg2+ to run 8)), the “E. C (μS/cm)” value is given as 31.2 μS/cm.

With `CC(=O)[O-].CC(=O)[O-].O.O.O.O.[Mg+2]` [Mg(CH3COO)2•4H2O, reference compound], the “E. C (μS/cm)” value in series [3] (setting [6]) is given as 32.3 μS/cm.

For `O=C(O)CO` [glycolic acid], the pKa entry in series [5] was “approx 3.83”.
